Experimental data from publication PMC12333011, “Selective Modulation of Trk Receptors by Cyclo-Organopeptides” (ACS Chemical Neuroscience, 2025).
Square brackets hold non-standard residues; d marks the D form.

Experiments:
HeLa-TrkA cells = conditions: for activity class in cell survival assay, TrkA: HeLa-TrkA cells, 50 μM compound, with or without 0.2 nM NGF, 48-72 h
Procedure: (§1) Throughout, compounds were tested at 50 μM in TrkA- and C-expressing cells and 0.4 μM in TrkB-expressing cells. […] Samples were tested for promoting cell survival in the absence of NTs (agonism) or in the presence of suboptimal concentrations of NTs whose loops they were designed to mimic (NT potentiation).
(§2) Cells were seeded at a density of 2000 cells per well. Cells were incubated in complete media for 24
(§3) hours. The media was aspirated, the cells washed twice with Dulbecco’s Phosphate Buffered Saline,
(§4) and the media was replaced with serum-free media to induce apoptosis unless otherwise halted.
(§5) Compound was added to cells (50 μM compound to HeLa-TrkA and NIH3T3-TrkC cells, 0.4 μM for
(§6) HEK293-TrkB) alone (agonism) or in the presence of suboptimal neurotrophin (~25 to 30% survival,
(§7) 0.2 nM NGF, 0.6 nM BDNF, or 0.2 nM NT3 for TrkA, B, or C expressing cells respectively). Cell
(§8) survival was measured via alamarBlue assay after 48-72 hours to determine cell viability. Data was
(§9) normalized to DMSO treatment (0%) and optimal neurotrophin (100%, 2.0 nM NGF, 1.0 nM BDNF,
(§10) 2.0 nM NT-3 for TrkA, B, or C expressing cells, respectively).
HeLa-TrkA cells were treated with 50 μM compound with or without suboptimal (0.2 nM) levels of
NGF and cell survival was analyzed after 48-72 hours by the alamarBlue assay. Data was
normalized to DMSO (0%) and 2.0 nM NGF (100%). Data is represented as the average of 3-6
(§11) points +/- standard deviation from the mean.
(§12) with a serial dilution of the compound in serum free media with or without suboptimal neurotrophin
(§13) and incubated for 48-72 hours, after which an alamarBlue assay was done to determine cell viability.
(§14) Cell viability was normalized to DMSO (0%) and optimal neurotrophin (100%), depending on cell type.
(§15) EC50 was calculated in GraphPad Prism 10.2 using the dose response “[agonist] vs response –
(§16) Variable slope (four parameters)” function. Data is presented as the mean +/- standard deviation of
an experiment with 3-6 replicates.

[1] = system: dry eye disease (desiccating stress to the eye); conditions: summarised from published work, ref number not given, cited from earlier work
From the text: All of the data for these in vivo assays is now published , and will only be summarized here. […] This negative result is surprising because D3 is a potentiator of NGF in TrkA transfectants.

NIH3T3-TrkC cells = conditions: for activity class in cell survival assay, TrkC: NIH3T3-TrkC cells, 50 μM compound, with or without 0.2 nM NT-3, 48-72 h
Procedure: as §1
Cell Survival Compound Screen
as §2, §3, §4, §5, §6, §7, §8, §9, §10
Cell Survival of NIH3T3-TrkC Cells
NIH3T3-TrkC cells were treated with 50 μM compound with or without suboptimal (0.2 nM) levels of
NT-3 and cell survival was analyzed after 48-72 hours by the alamarBlue assay. Data was
normalized to DMSO (0%) and 2.0 nM NT-3 (100%). Data is represented as the average of 3-6
as §11
Cell Survival Dose Response
as §12, §13, §14, §15, §16
an experiment with 3-6 replicates.

HEK293-TrkB cells = conditions: for activity class in cell survival assay, TrkB: HEK293-TrkB cells, 0.4 μM compound, with or without 0.6 nM BDNF, 48-72 h; for shape of dose-response curve, cell survival: HEK293-TrkB cells with 0.6 nM BDNF (suboptimal), EC50s could not be determined
Procedure: as §1
Cell Survival Compound Screen
as §2, §3, §4, §5, §6, §7, §8, §9, §10
Cell Survival of HEK293-TrkB Cells
HEK293-TrkB cells were treated with 0.4 μM compound with or without suboptimal (0.6 nM) levels of
BDNF and cell survival was analyzed after 48-72 hours by the alamarBlue assay. Data was
normalized to DMSO (0%) and 1.0 nM BDNF (100%). Data is represented as the average of 3-6
as §11
Cell Survival Dose Response
The most promising compounds from the screen were selected for each cell line. Cells were treated
as §12, §13, §14, §15, §16
an experiment with 3-6 replicates.

EC50 (HeLa-TrkA cells)	Compound	activity class in cell survival assay, TrkA (HeLa-TrkA cells)	corneal barrier function ([1]; murine dry eye disease model)	activity class in cell survival assay, TrkC (NIH3T3-TrkC cells)	activity class in cell survival assay, TrkB (HEK293-TrkB cells)	shape of dose-response curve, cell survival (HEK293-TrkB cells)	also measured
7.1 µM	CC[C@H](C)[C@@H]1NC(=O)[C@H](CC(N)=O)NC(=O)[C@H](C(C)C)n2cc(nn2)C[C@@H](C(=O)N[C@@H](CCCCNS(=O)(=O)c2cccc3c(N(C)C)cccc23)C(=O)O)NC(=O)[C@H](Cc2ccccc2)NC(=O)[C@H](C(C)C)NC(=O)[C@H](CO)NC(=O)[C@H](CC(N)=O)NC(=O)[C@H](CC(N)=O)NC1=O [1a(ii)ext]	selective TrkA agonists	–	–	–	–	–
10.2 µM	CC[C@H](C)[C@@H]1NC(=O)[C@@H]2C[C@@H](CN2)NC(=O)[C@H](CO)NC(=O)[C@H](CC(N)=O)NC(=O)[C@H](CC(N)=O)NC1=O [3a(ii)]	selective TrkA agonists	–	–	–	–	activity in the preliminary in vivo screen ([1]; murine dry eye disease model): no significant activity
–	CC[C@H](C)[C@@H]1NC(=O)[C@H](CC(=O)O)NC(=O)[C@@H]2C[C@@H](CN2)NC(=O)CNC(=O)[C@H](CCCNC(=N)N)NC1=O [3c(i)]	agonist of TrkA	increased corneal barrier function	potentiator of BDNF and NT-3	potentiator of BDNF and NT-3	–	maximum activity, % survival compared with that imparted by NT-3 (NIH3T3-TrkC cells; 24 h): ~52%; EC50 (HEK293-TrkB cells): 1 µM; maximum activity, % of the maximum survival imparted by BDNF (HEK293-TrkB cells; 24 h): ~53%
–	M DSKKR (sidechain bridge or staple) [1b(iii)]	–	–	–	BDNF potentiators	bell-shaped dose–response curve	–
–	cyclo(DSKK) [3b(iii)]	–	–	–	BDNF potentiators	bell-shaped dose–response curve	–
–	cyclo([dN]-Lys-Val) [4c(iii)nKV]	–	increased corneal barrier function	selectively modulate cell survival through the TrkC receptors	–	–	NFκB activation (marker of inflammation) ([1]; biochemical experiments in the dry eye studies): decreases NFκB activation; conjunctival goblet cell densities ([1]; murine dry eye disease model, further studies): increase conjunctival goblet cell densities; EC50 (NIH3T3-TrkC cells; read-out: EC50, cell survival of TrkC cells with suboptimal NT-3 (unit inferred), NIH3T3-TrkC cells with 0.2 nM NT-3, sigmoidal dose response, 48-72 h, alamarBlue): 8.7 µM
